Assay results as given in patent US20080312085A1, “Pesticidal Compositions” (priority 2005, published 2008).
Values belong to the compound of their own block, whether it stands above or below them.

Columns and labels:
[1] = tested on: Cowpea Aphid (aphis craccivora); test: Cowpea aphid test, colonized potted cowpea plants sprayed; type: in vivo; conditions: population reduction recorded after 24, 72 and 120 hours, read-out: mortality in comparison with untreated controls
Experimental: B.3 Cowpea Aphid (aphis craccivora)
The active compounds were formulated in 50:50 acetone:water. Potted cowpea plants colonized with 100-150 aphids of various stages were sprayed after the pest population has been recorded. Population reduction was recorded after 24, 72, and 120 hours.

[2] = tested on: Green Peach Aphid (Myzus persicae); test: Green peach aphid test, leaves of infested pepper plants dipped; type: in vivo; conditions: 120 h, aphid mortality determined after 5 days, read-out: mortality in comparison with untreated controls
Description: B.2 Green Peach Aphid (Myzus persicae)
(§1) The active compounds were formulated in 50:50 acetone:water and 100 ppm Kinetica™ surfactant.
(§2) Pepper plants in the 2nd leaf-pair stage (variety ‘California Wonder’) are infested with approximately 40 laboratory-reared aphids by placing infested leaf sections on top of the test plants. The leaf sections are removed after 24 hr. The leaves of the intact plants are dipped into gradient solutions of the test compound. Aphid mortality on the treated plants, relative to mortality on check plants, is determined after 5 days.

[3] = tested on: Cotton Aphid (Aphis gossypii); test: Cotton aphid test, cotyledons of infested cotton plants dipped; type: in vivo; conditions: 120 h, aphid mortality determined after 5 days, read-out: mortality in comparison with untreated controls
Description: B.1 Cotton Aphid (Aphis gossypii)
as §1
as §2, with “Cotton” for “Pepper”, “cotyledon” for “2nd leaf-pair”, “‘Delta Pine’)” for “‘California Wonder’)”, “100” for “40”, “cotyledons” for “leaves”

[4] = tested on: Vetch Aphid (Megoura viciae); test: Vetch aphid test, sprayed bean leaf disks in microtiterplates; type: in vivo; conditions: foliar, 144 h, bean leaf disks sprayed with 2.5 μl, 6 days, read-out: mortality in comparison with untreated controls
Experimental: B.4 Vetch Aphid (Megoura viciae)
The active compounds were formulated in 1:3 DMSO:water. Bean leaf disks were placed into microtiterplates filled with 0.8% agar-agar and 2.5 ppm OPUS™. The leaf disks were sprayed with 2.5 μl of the test solution and 5 to 8 adult aphids were placed into the microtiterplates which were then closed and kept at 22-24° C. and 35-45% under fluorescent light for 6 days. Mortality was assessed on the basis of vital, reproduced aphids. Tests were replicated twice.

melting point: 71 to 73 °C
Structure (SMILES): Clc1cccc(C(Cc2cc(Cl)c3ccccc3n2)NC2=NCCS2)c1Cl (centres unmarked) [Compound Example 12]

melting point: 74 to 89 °C
Structure (SMILES): Clc1cccc(C(Cc2cn(Cc3ccccc3)nn2)NC2=NCCS2)c1Cl (centres unmarked) [Compound Example 35]

Structure (SMILES): Clc1cccc(C(Cc2ccccn2)NC2=NCCS2)c1Cl (centres unmarked) [compound 1]
mortality at 300 ppm [1]: > 80%
mortality at 300 ppm [2]: > 80%
mortality at 300 ppm [3]: > 80%

Structure (SMILES): Cc1ccc(CC(NC2=NCCS2)c2cccc(Cl)c2Cl)nc1 (centres unmarked) [compound 3]
mortality at 300 ppm [1]: > 80%
mortality at 300 ppm [2]: > 80%
mortality at 300 ppm [3]: > 80%

Structure (SMILES): Cc1cccc(CC(NC2=NCCS2)c2cccc(Cl)c2Cl)n1 (centres unmarked) [compound 4]
mortality at 300 ppm [1]: > 80%
mortality at 300 ppm [2]: > 80%
mortality at 300 ppm [3]: > 80%

Structure (SMILES): Cc1cc(C)nc(CC(NC2=NCCS2)c2cccc(Cl)c2Cl)c1 (centres unmarked) [compound 6]
mortality at 300 ppm [1]: > 80%
mortality at 300 ppm [2]: > 80%
mortality at 300 ppm [3]: > 80%
mortality at 2500 ppm [4]: > 80%

Structure (SMILES): Clc1cccc(C(Cc2nccc3ccccc23)NC2=NCCS2)c1Cl (centres unmarked) [compound 8]
mortality at 300 ppm [1]: > 80%
mortality at 300 ppm [2]: > 80%
mortality at 300 ppm [3]: > 80%
mortality at 2500 ppm [4]: > 80%

Structure (SMILES): Clc1cccc(C(Cc2ccc3ccccc3n2)NC2=NCCS2)c1Cl (centres unmarked) [compound 9]
mortality at 300 ppm [1]: > 80%
mortality at 300 ppm [2]: > 80%
mortality at 300 ppm [3]: > 80%
mortality at 2500 ppm [4]: > 80%

Structure (SMILES): Clc1cccc(C(Cc2cccnc2)NC2=NCCS2)c1Cl (centres unmarked) [compound 13]
mortality at 300 ppm [2]: > 80%

Structure (SMILES): Cc1cc(CC(NC2=NCCS2)c2cccc(Cl)c2Cl)on1 (centres unmarked) [compound 23]
mortality at 300 ppm [1]: > 80%

Structure (SMILES): CCc1cc(CC(NC2=NCCS2)c2cccc(Cl)c2Cl)on1 (centres unmarked) [compound 24]
mortality at 300 ppm [2]: > 80%
mortality at 300 ppm [3]: > 80%

Structure (SMILES): Cc1nc(CC(NC2=NCCS2)c2cccc(Cl)c2Cl)oc1C (centres unmarked) [compound 31]
mortality at 300 ppm [1]: > 80%

Structure (SMILES): c1ccc(C(Cc2ccco2)NC2=NCCS2)cc1 (centres unmarked) [compound 38]
mortality at 300 ppm [2]: > 80%
mortality at 300 ppm [3]: > 80%

Structure (SMILES): c1ccc(C(Cc2cccs2)NC2=NCCS2)cc1 (centres unmarked) [compound 39]
mortality at 300 ppm [2]: > 80%
mortality at 300 ppm [3]: > 80%
